Data taken from publication PMC10646256, “Scutellarin Rescued Mitochondrial Damage through Ameliorating Mitochondrial Glucose Oxidation via the Pdk‐Pdc Axis” (Advanced Science, 2023).

Target: pyruvate dehydrogenase kinase 2 (PDK2) (Homo sapiens, UniProt Q15119)
Experiment: mobility shift kinase assay with purified GST-PDK2; supported by DARTS, CETSA, co-IP-MS and LiP-MS
Assay type: biochemical

## O=C(O)[C@H]1O[C@@H](Oc2cc3oc(-c4ccc(O)cc4)cc(=O)c3c(O)c2O)[C@H](O)[C@@H](O)[C@@H]1O [SG, Scutellarin]
  mobility shift kinase assay with purified GST-PDK2; supported by DARTS, CETSA, c: SG had significantly higher inhibitory activity against PDK2 than DCA at multiple concentrations
